This passage reports solubility in water results from patent publication US8431747B2, “Process for the preparation of monomers for polybenzimidazole materials” (E I du Pont de Nemours and Company, priority 2008, dated 2013).

The data set in a line: solubility of TAT salt in water. In kind it is physicochemical. To be noted: 25° C. The method, then: The reaction mixture containing the precipitated TAT salt is then cooled to about 5° C. to about 15° C. and stirred, then filtered. The TAT salt is then washed 44. It may be washed with deaerated aqueous acid, such as HCl (33%), and then optionally with deaerated ethanol or methanol to produce a wet cake material. The used acid can then be distilled and recycled (31, 30, 33). […] Using an agitated filter unit during the wash procedures can allow for a reduction of the wash volumes. Under such circumstances, using small amounts of cold (e.g., about 5° C.) water instead of the aqueous acid would be effective; cold water would be used because of lower solubility of the TAT salt in cold water versus, e.g., room temperature. For example, the solubility of TAT.4HCl in water at 25° C. is about 16 wt %.

Where a name gives a salt, the structure may show the parent alone.

In the case of `Cc1c(N)c(N)cc(N)c1N` [TAT.4HCl, 2,3,5,6-tetraaminotoluene salt], the solubility in water result is reported as “about 16 wt %”.
